# Measurements published in paper PMC8901636, “Preclinical studies of Flonoltinib Maleate, a novel JAK2/FLT3 inhibitor, in treatment of JAK2^V617F-induced myeloproliferative neoplasms” (Blood Cancer Journal, 2022).
# Where two headings read alike, the source gives them in different places.
# Legend:
# [1] = PK and tissue distribution after repeated oral administration in Ba/F3-EPOR-JAK2^V617F tumor-bearing mice; type: in vivo; details: for Kp: spleen and plasma, po
# Bioavailability = details: rat, in vivo; rats; data not shown
# TYK2 = TYK2 (Homo sapiens, UniProt P29597); assay: In vitro kinase assay
# Ba/F3-FLT3-ITD = assay: MTT assay for cell proliferation; type: cell-based, Murine; details: Mus musculus, Ba/F3 FLT3-ITD, 72 h, read-out: IC50(μM) ± SD, tumor cell proliferation
# Procedure: For in vitro inhibition assays, cells were seeded in 96-well culture plates with a density of 15,000–20,000 cells/well after the cells reached 70–90% confluence. […] MTT (3-(4, 5-dimethylthiazol-2-yl)-2, 5-diphenyltetrazolium bromide) (Cat. No. 1334GR001; BioFroxx) assay was conducted in order to examine viability. The IC50 values were fitted using GraphPad Prism 7.0.
# [2] = BALB/c nude, mouse, lung, oral, 30 mg/kg, repeated, read-out: FM concentration, Lung
# [3] = BALB/c nude, mouse, muscle, oral, 30 mg/kg, repeated, read-out: FM concentration, Muscle
# [4] = BALB/c nude, mouse, plasma, oral, 30 mg/kg, repeated, read-out: FM concentration, Plasma
# [5] = BALB/c nude, mouse, spleen, oral, 30 mg/kg, repeated, read-out: FM concentration, Spleen
# [6] = BALB/c nude, mouse, stomach, oral, 30 mg/kg, repeated, read-out: FM concentration, Stomach
# [7] = BALB/c nude, mouse, Plasma, repeated oral 30 mg/kg
# [8] = BALB/c nude, mouse, Spleen, repeated oral 30 mg/kg
# Chain of TYK2 (P29597 whole entry): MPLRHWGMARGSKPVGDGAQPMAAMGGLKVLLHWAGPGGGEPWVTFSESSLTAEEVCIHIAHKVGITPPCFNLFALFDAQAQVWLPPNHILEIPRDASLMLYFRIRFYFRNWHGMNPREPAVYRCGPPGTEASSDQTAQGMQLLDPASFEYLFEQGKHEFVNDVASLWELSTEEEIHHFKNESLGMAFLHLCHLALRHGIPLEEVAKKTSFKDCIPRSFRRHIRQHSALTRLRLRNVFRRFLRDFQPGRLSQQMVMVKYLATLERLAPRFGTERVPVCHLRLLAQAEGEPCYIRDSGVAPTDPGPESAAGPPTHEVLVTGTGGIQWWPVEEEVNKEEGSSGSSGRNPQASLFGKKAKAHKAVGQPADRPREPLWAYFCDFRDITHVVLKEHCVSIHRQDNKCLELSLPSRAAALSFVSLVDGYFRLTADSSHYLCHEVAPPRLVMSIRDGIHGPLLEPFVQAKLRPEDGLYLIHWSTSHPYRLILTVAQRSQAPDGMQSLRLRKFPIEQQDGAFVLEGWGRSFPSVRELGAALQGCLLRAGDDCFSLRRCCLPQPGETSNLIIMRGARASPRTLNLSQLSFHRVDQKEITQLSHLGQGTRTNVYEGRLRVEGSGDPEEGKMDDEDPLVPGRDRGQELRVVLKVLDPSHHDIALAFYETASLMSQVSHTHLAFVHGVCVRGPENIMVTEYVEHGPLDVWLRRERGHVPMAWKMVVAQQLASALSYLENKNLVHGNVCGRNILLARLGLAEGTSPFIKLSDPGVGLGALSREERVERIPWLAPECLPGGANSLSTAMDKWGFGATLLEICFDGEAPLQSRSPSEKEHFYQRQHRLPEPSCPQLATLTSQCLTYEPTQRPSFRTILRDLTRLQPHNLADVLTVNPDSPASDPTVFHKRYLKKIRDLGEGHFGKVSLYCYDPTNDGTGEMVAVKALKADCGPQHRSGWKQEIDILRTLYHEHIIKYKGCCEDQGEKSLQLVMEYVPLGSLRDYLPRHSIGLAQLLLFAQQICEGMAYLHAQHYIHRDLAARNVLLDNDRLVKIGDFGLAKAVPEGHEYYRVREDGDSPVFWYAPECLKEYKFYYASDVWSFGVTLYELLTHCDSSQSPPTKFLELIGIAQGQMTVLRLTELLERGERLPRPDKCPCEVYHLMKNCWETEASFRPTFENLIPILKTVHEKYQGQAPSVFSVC
smiles,measurement,setting,value
"Cc1cnc(Nc2ccc(N3CCC(N(C)CCO)CC3)c(F)c2)nc1-c1cnn(C(C)C)c1 [FM, 2-((1-(2-fluoro-4-((4-(1-isopropyl-1H-pyrazol-4-yl)-5-methylpyrimidin-2-yl)amino)phenyl)piperidin-4-yl)(methyl)amino)ethan-1-ol]",concentration at 8 h,"[1]; BALB/c nude, mouse, liver, oral, 30 mg/kg, repeated, 8 h, read-out: FM concentration, Liver",1900 ± 1330 ng/g
same,concentration at 12 h,"[1]; BALB/c nude, mouse, liver, oral, 30 mg/kg, repeated, 12 h, read-out: FM concentration, Liver",151 ± 116 ng/g
same,concentration at 0 h,[1]; [2],18.5 ± 4 ng/g
same,concentration at 0.5 h,[1]; [2],11400 ± 1780 ng/g
same,concentration at 2 h,[1]; [2],7150 ± 1880 ng/g
same,concentration at 4 h,[1]; [2],3890 ± 1470 ng/g
same,concentration at 8 h,"[1]; BALB/c nude, mouse, lung, oral, 30 mg/kg, repeated, 8 h, read-out: FM concentration, Lung",1450 ± 1430 ng/g
same,concentration at 12 h,"[1]; BALB/c nude, mouse, lung, oral, 30 mg/kg, repeated, 12 h, read-out: FM concentration, Lung",132 ± 76.7 ng/g
same,concentration at 0 h,[1]; [3],18.6 ± 11.7 ng/g
same,concentration at 0.5 h,[1]; [3],415 ± 435 ng/g
same,concentration at 2 h,[1]; [3],275 ± 158 ng/g
same,concentration at 4 h,[1]; [3],181 ± 120 ng/g
same,concentration at 8 h,"[1]; BALB/c nude, mouse, muscle, oral, 30 mg/kg, repeated, 8 h, read-out: FM concentration, Muscle",85 ± 73.1 ng/g
same,concentration at 12 h,"[1]; BALB/c nude, mouse, muscle, oral, 30 mg/kg, repeated, 12 h, read-out: FM concentration, Muscle",13.3 ± 6.38 ng/g
same,concentration at 0 h,[1]; [4],0.0056 ± 0.00153 µg/mL
same,concentration at 0.25 h,[1]; [4],0.628 ± 0.144 µg/mL
same,concentration at 0.5 h,[1]; [4],0.889 ± 0.238 µg/mL
same,concentration at 1 h,[1]; [4],1.04 ± 0.375 µg/mL
same,concentration at 2 h,[1]; [4],0.638 ± 0.168 µg/mL
same,concentration at 4 h,[1]; [4],0.292 ± 0.101 µg/mL
same,concentration at 8 h,"[1]; BALB/c nude, mouse, plasma, oral, 30 mg/kg, repeated, 8 h, read-out: FM concentration, Plasma",0.106 ± 0.0841 µg/mL
same,concentration at 12 h,"[1]; BALB/c nude, mouse, plasma, oral, 30 mg/kg, repeated, 12 h, read-out: FM concentration, Plasma",0.0193 ± 0.0129 µg/mL
same,concentration at 24 h,"[1]; BALB/c nude, mouse, plasma, oral, 30 mg/kg, repeated, 24 h, read-out: FM concentration, Plasma",0.00556 ± 0.00497 µg/mL
same,Kp,"[1]; BALB/c nude, mouse, 30 mg/kg, AUC(0–24h) of spleen higher than that of plasma, repeated oral 30 mg/kg",17.9
same,Kp,"[1]; BALB/c nude, mouse, 30 mg/kg, repeated oral 30 mg/kg, read-out: Cmax of spleen higher than that of plasma",14.1
same,concentration at 0 h,[1]; [5],69 ± 44.8 ng/g
same,concentration at 0.25 h,[1]; [5],3700 ± 1440 ng/g
same,concentration at 0.5 h,[1]; [5],12100 ± 1910 ng/g
same,concentration at 1 h,[1]; [5],17100 ± 6420 ng/g
same,concentration at 2 h,[1]; [5],12200 ± 4390 ng/g
same,concentration at 4 h,[1]; [5],6180 ± 1680 ng/g
same,concentration at 8 h,"[1]; BALB/c nude, mouse, spleen, oral, 30 mg/kg, repeated, 8 h after the last administration, read-out: FM concentration, Spleen",2150 ± 1390 ng/g
same,concentration at 12 h,"[1]; BALB/c nude, mouse, spleen, oral, 30 mg/kg, repeated, 12 h after the last administration, read-out: FM concentration, Spleen",391 ± 181 ng/g
same,concentration at 0 h,[1]; [6],71.8 ± 44.3 ng/g
same,concentration at 0.5 h,[1]; [6],33100 ± 22700 ng/g
same,concentration at 2 h,[1]; [6],19300 ± 20700 ng/g
same,concentration at 4 h,[1]; [6],11700 ± 8600 ng/g
same,concentration at 8 h,"[1]; BALB/c nude, mouse, stomach, oral, 30 mg/kg, repeated, 8 h, read-out: FM concentration, Stomach",3500 ± 5190 ng/g
same,concentration at 12 h,"[1]; BALB/c nude, mouse, stomach, oral, 30 mg/kg, repeated, 12 h, read-out: FM concentration, Stomach",2490 ± 2530 ng/g
same,Cmax,[1]; [7],1.28 ± 0.455 µg/mL
same,half-life,[1]; [7],2.85 ± 1.14 h
same,AUC(0-t),"[1]; BALB/c nude, mouse, Plasma, repeated oral 30 mg/kg, read-out: AUC0–24 h",3.74 ± 0.704 µg·h/mL
same,Cmax,[1]; [8],18100 ± 5680 ng/g
same,half-life,[1]; [8],2.37 ± 0.58 h
same,Cl,"[1]; Plasma, repeated oral 30 mg/kg",8.23 ± 1.91 L/h/kg
same,Vdss,"[1]; Plasma, repeated oral 30 mg/kg",32.81 ± 11.21 L/kg
same,AUC0–24 h,"[1]; Spleen, repeated oral 30 mg/kg",67200.44 ± 11858.88 ng^.h/mL
same,bioavailability,Bioavailability,~60%
same,IC50,TYK2,0.065 µM
same,IC50,Ba/F3-FLT3-ITD,0.12 ± 0.01 µM
